Experimental findings from ChEMBL document CHEMBL1255229, “Novel antimicrobial peptides that exhibit activity against select agents and other drug resistant bacteria” (2010) are described below.

Values after ≈ are worked out from the molar mass of the structure shown. Starred links: 1 amine or outer side, 2 acyl side, 3 side chain; linkers in the order of their positions; H or OH if unused. Non-standard residues stand in square brackets, D forms with d. Residues, ends and D or L forms follow the SMILES beside them. X1 = O=C([C@@H]1CN([*:1])C2CCCCC21)[*:2]; Tic = O=C(O)[C@@H]1Cc2ccccc2CN1; Orn = NCCC[C@H](N)C(=O)O

Common to all, as to type: functional
For test [1], the system named is Brucella melitensis. Put plainly: Antimicrobial activity against Brucella melitensis 16 M after 24 hrs.
Test [2] relates to Francisella tularensis. Put plainly: Antimicrobial activity against Francisella tularensis SCHU-S4 after 24 hrs. The conditions noted are these: SCHU-S4, 24 h.
Test [3] deals with Brucella abortus. Nature of the test: Antimicrobial activity against Brucella abortus 2308 after 24 hrs. The following applies: Brucella abortus, 2308, 24 h.
For test [4], the system named is Acinetobacter baumannii. Nature of the test: Antimicrobial activity against Acinetobacter baumannii WRAIR after 24 hrs.
The subject of test [5] is Burkholderia mallei. Put plainly: Antimicrobial activity against Burkholderia mallei ATCC 23444 after 24 hrs. The following applies: ATCC 23444, 24 h.
Test [6] deals with Bacillus anthracis. Nature of the test: Antimicrobial activity against Bacillus anthracis Ames after 24 hrs.
The test system of test [7] is Staphylococcus aureus. Nature of the test: Antimicrobial activity against methicillin-resistant Staphylococcus aureus ATCC 33591 after 24 hrs. The following applies: ATCC 33591, 24 h.
Test [8] has as its system Brucella suis. Nature of the test: Antimicrobial activity against Brucella suis ATCC 23445 after 24 hrs. The conditions noted are these: ATCC 23445, 24 h.
For test [9], the system named is Acinetobacter baumannii. Put plainly: Antimicrobial activity against Acinetobacter baumannii ATCC 19606 after 24 hrs. The following applies: ATCC 19606 = CIP 70.34 = JCM 6841, 24 h.
In test [10] the test system is Burkholderia pseudomallei. Nature of the test: Antimicrobial activity against Burkholderia pseudomallei BURK003(1026b) after 24 hrs.
For test [11], the system named is Yersinia pestis. Put plainly: Antimicrobial activity against Yersinia pestis CO92 after 24 hrs. The conditions noted are these: CO92, 24 h.

As for `CC(C)C[C@H](NC(=O)[C@@H](N)CCCCN)C(=O)N1Cc2ccccc2C[C@H]1C(=O)N1C[C@@H](C(=O)N[C@@H](CCCCN)C(=O)N2Cc3ccccc3C[C@H]2C(=O)N2C[C@@H](C(=O)N[C@@H](Cc3ccccc3)C(=O)N3Cc4ccccc4C[C@H]3C(=O)N3C[C@@H](C(=O)N[C@@H](CCCCN)C(=O)N4Cc5ccccc5C[C@H]4C(=O)N4C[C@@H](C(=O)N[C@@H](Cc5ccccc5)C(=O)N5Cc6ccccc6C[C@H]5C(=O)N5C[C@@H](C(=O)N[C@@H](CCCCN)C(=O)N6Cc7ccccc7C[C@H]6C(=O)N6C[C@@H](C(=O)N[C@@H](CCCCN)C(=O)N[C@@H](CCCNC(=N)N)C(N)=O)C7CCCCC76)C6CCCCC65)C5CCCCC54)C4CCCCC43)C3CCCCC32)C2CCCCC21` (some centres undefined) (H-KL[Tic][X1]K[Tic][X1]F[Tic][X1]K[Tic][X1]F[Tic][X1]K[Tic][X1]KR-NH2), the MIC came to 162 µM (≈ 500 µg/mL) in test [1]; 81 µM (≈ 250 µg/mL) in test [2]; 500 µM (≈ 1540 µg/mL) in [3]; 162 µM (≈ 500 µg/mL) in test [4]; 162 µM (≈ 500 µg/mL) in test [5]; 40.5 µM (≈ 125 µg/mL) in [6]. Besides, the MIC in test [7] stood at 162 µM (≈ 500 µg/mL); in [8], 162 µM (≈ 500 µg/mL); in test [9] it was 40.5 µM (≈ 125 µg/mL); in test [10] it was 162 µM (≈ 500 µg/mL); in test [11] it was 162 µM (≈ 500 µg/mL).

On to `CC(C)C[C@H](NC(=O)[C@@H](N)CCCN)C(=O)N1Cc2ccccc2C[C@H]1C(=O)N1C[C@@H](C(=O)N[C@@H](CCCN)C(=O)N2Cc3ccccc3C[C@H]2C(=O)N2C[C@@H](C(=O)N[C@@H](Cc3ccccc3)C(=O)N3Cc4ccccc4C[C@H]3C(=O)N3C[C@@H](C(=O)N[C@@H](CCCN)C(=O)N4Cc5ccccc5C[C@H]4C(=O)N4C[C@@H](C(=O)N[C@@H](Cc5ccccc5)C(=O)N5Cc6ccccc6C[C@H]5C(=O)N5C[C@@H](C(=O)N[C@@H](CCCN)C(=O)N6Cc7ccccc7C[C@H]6C(=O)N6C[C@@H](C(=O)N[C@@H](CCCN)C(=O)N[C@@H](CCCN)C(=O)N[C@@H](CCCN)C(=O)N[C@@H](CCCN)C(N)=O)C7CCCCC76)C6CCCCC65)C5CCCCC54)C4CCCCC43)C3CCCCC32)C2CCCCC21` (some centres undefined) (H-[Orn]L[Tic][X1][Orn][Tic][X1]F[Tic][X1][Orn][Tic][X1]F[Tic][X1][Orn][Tic][X1][Orn][Orn][Orn][Orn]-NH2), for which the MIC in test [1], in test [2], in [3], in test [4], in test [5] and in test [6] was 156 µM (≈ 499 µg/mL) throughout. Further, the MIC was 156 µM (≈ 499 µg/mL) in test [7]; 156 µM (≈ 499 µg/mL) in test [8]; 9.77 µM (≈ 31.3 µg/mL) in test [9]; 156 µM (≈ 499 µg/mL) in [10]; 156 µM (≈ 499 µg/mL) in test [11].

As for `CC1(C)S[C@@H]2[C@H](NC(=O)[C@H](N)c3ccccc3)C(=O)N2[C@H]1C(=O)O` [AMPICILLIN], the MIC in test [1] stood at 11 µM (≈ 3.84 µg/mL); in [2], 0.09 µM (≈ 0.0314 µg/mL); in test [3] it was 11 µM (≈ 3.84 µg/mL); in test [4], 1430 µM (≈ 500 µg/mL); in [5], 0.09 µM (≈ 0.0314 µg/mL); in test [6], 0.4 µM (≈ 0.14 µg/mL). Moreover, the MIC amounted to 93 µM (≈ 32.5 µg/mL) in test [7]; 0.8 µM (≈ 0.28 µg/mL) in test [8]; 179 µM (≈ 62.5 µg/mL) in test [9]; 0.09 µM (≈ 0.0314 µg/mL) in [10]; 0.8 µM (≈ 0.28 µg/mL) in [11].

Consider `C[C@H]1c2cccc(O)c2C(=O)C2=C(O)[C@]3(O)C(=O)C(C(N)=O)=C(O)[C@@H](N(C)C)[C@@H]3[C@@H](O)[C@@H]21` [DOXYCYCLINE], for which the MIC in test [1] was determined as 0.56 µM (≈ 0.249 µg/mL); in test [2], 0.09 µM (≈ 0.04 µg/mL); in test [3], 0.56 µM (≈ 0.249 µg/mL); in test [4], 0.56 µM (≈ 0.249 µg/mL); in test [5], 0.09 µM (≈ 0.04 µg/mL); in test [6] it was 0.27 µM (≈ 0.12 µg/mL). Further, the minimal inhibitory concentration (MIC) came to 17.6 µM (≈ 7.82 µg/mL) in test [7]; 0.56 µM (≈ 0.249 µg/mL) in test [8]; 0.56 µM (≈ 0.249 µg/mL) in test [9]; 0.09 µM (≈ 0.04 µg/mL) in test [10]; 0.56 µM (≈ 0.249 µg/mL) in test [11].

What is called MIC is the smallest concentration in the dilution series that meets the test's criterion for growth inhibition. A low value points to inhibition by little substance.
